The values below come from patent US7511041B2, “Fused azole-pyrimidine derivatives” (Bayer Pharmaceuticals Corporation, priority 2002, dated 2009).

The target in data set [1] is T1, Recombinant human PI3Kγ (full length human PI3K p110γ) (Homo sapiens, UniProt P48736).
T1 construct: full length human PI3K p110γ fused with a His6-tag at the C-terminus; His6 (C); purchased ALEXIS BIOCHEMICALS #201-055-C010; host or cells: S. frugiperda 9 insect cells
As to the kind of experiment: Kinase assay of PI3Kγ (solid-phase lipid kinase assay). The format is biochemical.

The target of data set [2] is PI3Kβ (heterocomplex of p110β and GST-p85α) (UniProt Q9Z1L0). Briefly: Isozyme selectivity test: kinase assay of PI3Kβ. The format is biochemical. The note with it: activity class of IC50, read-out: In vitro PI3K-β inhibitory activity. On the procedure:
[Isozyme Selectivity Test in PI3K]
{Determination of IC50 Values of Compounds in Kinase Assay of PI3Kβ}
Recombinant baculovirus of PI3Kβ p110β and GST-p85α were obtained from Dr. Katada (University of Tokyo). Recombinant PI3K heterocomplex of p110β and GST-p85α were co-expressed in insect cells according to manufacture's instruction (Pharmingen, San Diego, Calif.), and purified with glutathione affinity column. Kinase assay of PI3Kβ was prepared in a similar manner as described in the part of [Determination of IC50 values of compounds in kinase assay of PI3Kγ].

The mark [3] stands for this setting: activity class of IC50, read-out: In vitro PI3K-γ inhibitory activity.
[4] abbreviates: in vitro PI3K-γ inhibitory activity, class symbols A-D, read-out: in vitro PI3K-gamma.

SMILES strings stand for the structures. Structures can show the parent of a compound that is named as a salt. Where two headings read alike, the source gives them in different places. Bounds are passed on as bounds.

T1 sequence (P48736 whole entry, the tested form may be a part): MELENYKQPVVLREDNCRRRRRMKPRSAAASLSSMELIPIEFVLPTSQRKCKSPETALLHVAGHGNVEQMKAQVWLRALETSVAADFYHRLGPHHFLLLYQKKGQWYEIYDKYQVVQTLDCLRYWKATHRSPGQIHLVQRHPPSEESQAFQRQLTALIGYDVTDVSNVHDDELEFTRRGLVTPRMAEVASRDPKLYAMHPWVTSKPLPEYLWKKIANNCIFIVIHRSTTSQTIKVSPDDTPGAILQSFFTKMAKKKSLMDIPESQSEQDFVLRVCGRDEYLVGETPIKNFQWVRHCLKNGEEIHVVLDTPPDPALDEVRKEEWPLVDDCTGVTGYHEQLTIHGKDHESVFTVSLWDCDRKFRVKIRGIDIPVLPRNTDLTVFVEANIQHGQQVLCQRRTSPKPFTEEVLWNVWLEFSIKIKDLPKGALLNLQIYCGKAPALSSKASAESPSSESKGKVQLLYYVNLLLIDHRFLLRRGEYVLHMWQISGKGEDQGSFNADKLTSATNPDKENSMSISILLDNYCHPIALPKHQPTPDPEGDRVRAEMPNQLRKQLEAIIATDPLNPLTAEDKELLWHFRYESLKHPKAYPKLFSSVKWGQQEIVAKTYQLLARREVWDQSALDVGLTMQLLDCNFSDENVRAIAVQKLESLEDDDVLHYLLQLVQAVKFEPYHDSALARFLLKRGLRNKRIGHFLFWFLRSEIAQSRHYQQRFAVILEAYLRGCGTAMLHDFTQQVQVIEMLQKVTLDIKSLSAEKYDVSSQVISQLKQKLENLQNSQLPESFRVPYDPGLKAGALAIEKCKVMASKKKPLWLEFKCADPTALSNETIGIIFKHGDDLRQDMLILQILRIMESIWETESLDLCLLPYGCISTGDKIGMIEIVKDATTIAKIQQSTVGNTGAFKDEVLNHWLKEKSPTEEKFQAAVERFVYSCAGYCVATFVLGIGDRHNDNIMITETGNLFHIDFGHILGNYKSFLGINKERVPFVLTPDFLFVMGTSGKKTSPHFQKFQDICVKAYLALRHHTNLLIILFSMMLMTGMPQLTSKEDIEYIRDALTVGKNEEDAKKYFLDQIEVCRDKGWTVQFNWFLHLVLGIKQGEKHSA

As a reminder, the melting point is the temperature of the solid-liquid transition. `COc1cc2c(cc1OC)C1=NCCN1C(/C=C(\O)c1cccnc1)=N2` [Example 1-1, (Z)-2-(8,9-Dimethoxy-2,3-dihydroimidazo[1,2-c]quinazolin-5-yl)-1-(3-pyridinyl)ethenol] showed a melting point of 275 °C. In addition, the IC50 in data set [1] (setting [3]) is < 0.1 µM. Besides, in data set [2], the IC50 was in the range of 0.5 to 2 µM.
`COc1c(O)ccc2c1N=C(/C=C(\O)c1cccnc1)N1CCN=C21` [Example 1-4, 5-(2-Hydroxy-2-pyridin-3-ylvinyl)-7-methoxy-2,3-dihydroimidazo[1,2-c]quinazolin-8-ol hydrochloride]: the values for the IC50 in data set [1] (setting [3]) and in data set [2] were < 0.1 µM and 0.5 to 2 µM, respectively.
For `COC(=O)CCCOc1ccc2c(c1OC)N=C(/C=C(\O)c1cccnc1)N1CCN=C21` [Example 1-5, Methyl 4-{[5-(2-hydroxy-2-pyridin-3-ylvinyl)-7-methoxy-2,3-dihydroimidazo[1,2-c]quinazolin-8-yl]oxy}butanoate], the melting point lay within 199 to 200 °C. The IC50 in data set [1] (setting [3]) was < 0.1 µM. Further, in data set [2], the IC50 was in the range of 0.5 to 2 µM.
Turning to `COc1c(OCCCC(=O)O)ccc2c1N=C(/C=C(\O)c1cccnc1)N1CCN=C21` [Example 1-6, 4-{[5-(2-Hydroxy-2-pyridin-3-ylvinyl)-7-methoxy-2,3-dihydroimidazo[1,2-c]quinazolin-8-yl]oxy}butanoic acid], the IC50 was < 0.1 µM in data set [1] (setting [3]) and 0.1 to 0.5 µM in data set [2].
For the compound `COc1c(OCCCC(=O)N2CCOCC2)ccc2c1N=C(/C=C(\O)c1cccnc1)N1CCN=C21` [Example 1-8, 2-[7-Methoxy-8-(4-morpholin-4-yl-4-oxobutoxy)-2,3-dihydroimidazo[1,2-c]quinazolin-5-yl]-1-pyridin-3-ylethylenol], the melting point lay within 234 to 235 °C. For the same compound, in data set [1] (setting [3]), the IC50 was < 0.1 µM. In addition, in data set [2], the IC50 was 0.1 to 0.5 µM.
Taken in the same sequence, the figures for `O=C(NC1=Nc2ccccc2C2=NCCN12)c1cccnc1` [Example 2-1, N-(2,3-Dihydroimidazo[1,2-c]quinazolin-5-yl)nicotinamide] were 238 to 239 °C (dec.), < 0.1 µM and 0.1 to 0.5 µM.
As to `CC(=O)Nc1ccc(C(=O)NC2=Nc3cc(N4CCOCC4)ccc3C3=NCCN23)cn1` [Example 2-3, 6-(Acetamido)-N-[8-(morpholin-4-yl)-2,3-dihydroimidazo[1,2-c]quinazolin-5-yl]nicotinamide], the IC50 is < 0.1 µM in data set [1] (setting [3]) and 0.5 to 2 µM in data set [2].
In the case of `CC(=O)Nc1ccc(C(=O)NC2=Nc3cc(N4CCOCC4)ccc3C3=NCCN23)cn1` [Example 2-4, 6-(Acetamido)-N-[8-(morpholin-4-yl)-2,3-dihydroimidazo[1,2-c]quinazolin-5-yl]nicotinamide hydrochloride], the IC50 in data set [2] (hydrochloride) is 0.1 to 0.5 µM.
In turn, `O=C(NC1=Nc2cc(O)ccc2C2=NCCN12)c1cccnc1` [Example 2-5, N-(8-Hydroxy-2,3-dihydroimidazo[1,2-c]quinazolin-5-yl)nicotinamide] showed a melting point of 289 °C. Also, the IC50 in data set [1] (setting [3]) was in the range of 0.1 to 0.5 µM. Besides, in data set [2], the IC50 was 0.5 to 2 µM.
Taken in the same sequence, the figures for `O=C(NC1=Nc2cc(OCCn3cccc3)ccc2C2=NCCN12)c1cccnc1` [Example 2-6, N-{8-[2-(1-pyrrolyl)ethoxy]-2,3-dihydroimidazo[1,2-c]quinazolin-5-yl}nicotinamide] were 209 °C, 0.1 to 0.5 µM and 0.1 to 0.5 µM.
Regarding `C[C@@H]1CN=C2c3ccccc3N=C(NC(=O)c3cccnc3)N21.Cl` [Example 2-366], the melting point was 270 °C (dec.). Further, the IC50 in data set [1] (setting [4]) is > 2 µM.
Taken in the same sequence, the figures for `COc1ccc2c(c1OC)N=C(NC(=O)c1cncc(O)c1)N1CCN=C21.Cl` [Example 2-368] were 240 °C (dec.) and < 0.1 µM.
On to `O/C(=C\c1nc2ccccc2c2nccn12)c1cccs1` [Example 3-1, (Z)-2-Imidazo[1,2-c]quinazolin-5-yl-1-(2-thienyl)ethenol], for which the melting point is 128 °C. In addition, the IC50 in data set [1] (setting [3]) is > 2 µM.
The matching figures for `O=C(Nc1nc2ccccc2c2nccn12)c1cccnc1` [Example 4-1, N-Imidazo[1,2-c]quinazolin-5-ylnicotinamide]: 223 to 224 °C (dec.) and 0.5 to 2 µM.
